Experimental data from patent US12378268B2, “Heterocyclic THR-β receptor agonist compound and preparation method and use therefor” (Hepagene Therapeutics (HK) Limited, priority 2019, dated 2025).
Like-named read-outs stand apart in the source and are kept apart here.

Key:
[1] = target: T1, THR-β (Homo sapiens, UniProt P10828); assay: Test of the binding ability of the compound to TRβ (TRβ LBD/RXR, biotin-SRC2-2 co-activating peptide, 665/615 nm fluorescence ratio); type: biochemical
T1 construct: TRB LBD, GST purchased from Thermo Fisher; purchased Thermo Fisher PV4762
T1 sequence (P10828 217-461 limits assumed, other chains not shown): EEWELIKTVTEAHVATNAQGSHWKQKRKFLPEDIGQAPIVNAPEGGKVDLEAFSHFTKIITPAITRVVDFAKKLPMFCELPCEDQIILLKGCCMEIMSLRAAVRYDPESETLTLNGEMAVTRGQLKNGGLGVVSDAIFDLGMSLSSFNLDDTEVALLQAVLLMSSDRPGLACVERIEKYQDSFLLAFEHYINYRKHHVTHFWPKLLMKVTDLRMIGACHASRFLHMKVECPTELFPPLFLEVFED
T1 sequence (P28702 whole entry partner, other chains not shown, the tested form may be a part): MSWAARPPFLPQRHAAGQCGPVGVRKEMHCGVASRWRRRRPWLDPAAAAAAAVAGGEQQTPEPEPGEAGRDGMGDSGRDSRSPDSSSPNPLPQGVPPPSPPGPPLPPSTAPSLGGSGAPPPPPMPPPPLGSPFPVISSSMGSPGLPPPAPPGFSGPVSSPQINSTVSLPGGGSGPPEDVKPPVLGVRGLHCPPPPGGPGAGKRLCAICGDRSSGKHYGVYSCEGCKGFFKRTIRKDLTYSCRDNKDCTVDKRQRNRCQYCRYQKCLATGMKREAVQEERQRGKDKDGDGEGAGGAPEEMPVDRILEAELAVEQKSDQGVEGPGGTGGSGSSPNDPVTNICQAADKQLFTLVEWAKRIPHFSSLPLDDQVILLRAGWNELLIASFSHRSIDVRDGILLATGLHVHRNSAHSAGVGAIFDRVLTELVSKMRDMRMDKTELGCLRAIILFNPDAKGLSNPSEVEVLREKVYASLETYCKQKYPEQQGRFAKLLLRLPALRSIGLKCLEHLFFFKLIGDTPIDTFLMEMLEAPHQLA
Experimental: 1. Main experimental materials and instruments:
Biotin-SRC2-2 co-activating peptide purchased from Sangon Biotech (Shanghai) Co., Ltd.
TRB LBD, GST purchased from Thermo Fisher (product No. PV4762)
Europium-conjugated anti-glutathione antibody purchased from Cisbio (product No. 61GSTKLB)
Streptavidin-D2 purchased from Cisbio (product No. 610SADAB)
(§1) 4.2 The activity percentage was calculated as follows: […]
(§2) RatioCompound: Average of the relative ratios of the compound wells of the embodiments
(§3) RatioPositive: Average of the relative ratios of all positive control wells.
(§4) RatioBlank: Average of the relative ratios of all negative control wells.
(§5) EC50 was calculated by fitting the relationship between activity (%) and compound logarithmic concentration with Graphpad 5.0 by a nonlinear regression method.
(§6) Y=Bottom+ (top-bottom)/(1+10^((LogEC50−X)*slope))
(§7) X: Compound logarithmic concentration Y: Percentage activity

[2] = target: T2, THR-α (Homo sapiens, UniProt P10827); assay: Test of the binding ability of the compound to TRα (TRα LBD/RXRα, biotin-SRC2-2 co-activating peptide, 665/615 nm fluorescence ratio); type: biochemical
T2 construct: TR-a LBD, GST purchased from Thermo Fisher; purchased Thermo Fisher PV4762
T2 sequence (P10827 163-410 isoform P10827-2 limits assumed, other chains not shown): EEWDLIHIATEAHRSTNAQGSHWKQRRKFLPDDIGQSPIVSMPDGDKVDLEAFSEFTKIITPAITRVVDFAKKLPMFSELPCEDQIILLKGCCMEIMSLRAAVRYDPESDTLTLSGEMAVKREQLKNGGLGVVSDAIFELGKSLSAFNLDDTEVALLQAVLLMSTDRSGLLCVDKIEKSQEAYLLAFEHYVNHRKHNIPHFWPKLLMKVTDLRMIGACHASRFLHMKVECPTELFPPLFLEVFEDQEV
T2 sequence (P19793 whole entry partner, other chains not shown, the tested form may be a part): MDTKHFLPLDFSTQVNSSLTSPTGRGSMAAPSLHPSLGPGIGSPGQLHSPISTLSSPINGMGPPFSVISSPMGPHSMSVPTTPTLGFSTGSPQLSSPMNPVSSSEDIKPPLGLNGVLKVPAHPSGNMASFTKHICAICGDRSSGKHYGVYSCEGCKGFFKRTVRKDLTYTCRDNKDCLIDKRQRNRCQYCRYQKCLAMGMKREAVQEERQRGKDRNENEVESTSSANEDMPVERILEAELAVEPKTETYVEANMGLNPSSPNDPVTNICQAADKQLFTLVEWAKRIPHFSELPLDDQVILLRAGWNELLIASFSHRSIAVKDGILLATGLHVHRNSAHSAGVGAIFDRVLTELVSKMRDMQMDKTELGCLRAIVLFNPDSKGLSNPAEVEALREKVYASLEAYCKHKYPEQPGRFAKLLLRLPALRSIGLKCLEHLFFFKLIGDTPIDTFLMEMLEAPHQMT
Experimental: as §1, §2, §3, §4, §5, §6, §7

[3] = Drug metabolism experiment on prodrug in SD rats: plasma pharmacokinetic parameters; type: in vivo; settings: plasma; for AUC(0-inf) / AUC(0-t) / Tmax / half-life / Cmax: male, Sprague-Dawley (SD), rat, po, 3 mg/kg
Experimental: (§8) Test 3: Drug metabolism experiment on prodrug in SD rats
(§9) In the experiment, […] of 12 male SD rats having similar body weights were selected and orally administered compound 9, compound 10, and the control drug VK2809 (the prodrug of MB07444, structured as shown below) at a dose of 3 mg/kg at a single time, respectively, and blood and liver samples were collected at different time points.
(§10) Solutions of compound 9/compound 10 and VK2809 with a final concentration of 0.6 mg/mL were respectively prepared, and the ratio between the solvents used for the preparation was PEG400: pure water =50:50 (v/v).
(§11) No randomization was performed. The weights of the animals were measured before administration, and healthy animals with similar body weights were selected for inclusion in the experiment. The oral dose was 3 mg/kg.
(§12) At least 0.2 mL of blood was collected from the tail vein or jugular vein, and heparin sodium was used as the anticoagulant.
15 min, 30 min, 1 h, 2 h, 4 h, 6 h, 8 h, 24 h after administration.
(§13) After being collected, a blood sample was placed in a marked ice-water bath centrifuge tube, plasma was quickly separated by centrifugation under centrifugation conditions: 3500 rpm, 10 minutes, and 4° C., and the plasma was stored under −40° C. for testing.
(§14) Q TRAP6500 mass spectrometer with ESI source was used to perform negative ion MRM scanning. An LC-MS/MS analysis method was used to detect the contents of compound 9, compound 10 and its active metabolite 1, VK2809 and its active metabolite MB07444 in the plasma and liver. The metabolic kinetics data analysis software WinNonlin 7.0 was used to calculate the concentration data of plasma, and the non-compartmental model (NCA) method was used to calculate the pharmacokinetic parameters.

[4] = Drug metabolism experiment on prodrug in SD rats: concentration in liver compared with blood; type: in vivo; settings: for Kp at 1 h / Kp at 4 h / Kp at 8 h / Kp at 24 h / concentration at 1 h / concentration at 4 h / concentration at 8 h / concentration at 24 h: male, rat, po, 3 mg/kg, SD rats; for Kp at 1 h / Kp at 4 h / Kp at 8 h / Kp at 24 h: read-out: Liver-to-blood ratio
Experimental: as §8, §9, §10, §11, §12, §13
After the liver sample was collected, its surface was washed with normal saline, dried with medical gauze, placed in a labeled small ziplock bag, and stored under −40° C. for testing.
as §14
The parameters of concentration in the livers of the SD rats and a comparison with the concentration in plasma are shown in Table 3 below: […]

[5] = activity relative to positive control
[6] = Sprague-Dawley (SD), liver / plasma (heading prints blood), oral 3 mg/kg Compound 9
[7] = Sprague-Dawley (SD), liver / plasma (heading prints blood), oral 3 mg/kg Compound 10
[8] = Sprague-Dawley (SD), liver, oral 3 mg/kg Compound 9, read-out: Ct Liver
[9] = Sprague-Dawley (SD), liver, oral 3 mg/kg Compound 10, read-out: Ct Liver
[10] = Sprague-Dawley (SD), plasma (heading prints blood), oral 3 mg/kg Compound 10, read-out: Ct Blood
[11] = Sprague-Dawley, plasma, oral 3 mg/kg Compound 9, read-out: Ct Blood

EC50 [1]: 12 nM
Emax [1, 5]: 104%
α/β selectivity (multiple) ([1]; calculated after being standardized with T3): 7.0 multiple
EC50 [2]: 41 nM
Emax [2, 5]: 96.4%
AUC(0-inf) ([3]; oral 3 mg/kg Compound 9): 1350 ng·h/mL
AUC(0-t) ([3]; oral 3 mg/kg Compound 9): 1290 ng·h/mL
Tmax ([3]; oral 3 mg/kg Compound 9): 4.67 h
half-life ([3]; oral 3 mg/kg Compound 9): 4.82 h
AUC(0-inf) ([3]; oral 3 mg/kg Compound 10): 613 ng·h/mL
AUC(0-t) ([3]; oral 3 mg/kg Compound 10): 586 ng·h/mL
Tmax ([3]; oral 3 mg/kg Compound 10): 6.67 h
half-life ([3]; oral 3 mg/kg Compound 10): 4.59 h
Cmax ([3]; oral 3 mg/kg Compound 9, read-out: Cmax): 134 ng/mL
Cmax ([3]; oral 3 mg/kg Compound 10, read-out: Cmax): 45.1 ng/mL
Kel ([3]; oral 3 mg/kg Compound 9): 0.147 h⁻¹
Kel ([3]; oral 3 mg/kg Compound 10): 0.154 h⁻¹
Kp at 1 h [4, 6]: 20.8
Kp at 1 h [4, 7]: 29.1
Kp at 4 h [4, 6]: 16.2
Kp at 4 h [4, 7]: 20.6
Kp at 8 h [4, 6]: 25.5
Kp at 8 h [4, 7]: 17.7
Kp at 24 h [4, 6]: 47.1
concentration at 1 h [4, 8]: 312 ng/g
concentration at 1 h [4, 9]: 693 ng/g
concentration at 4 h [4, 8]: 1560 ng/g
concentration at 4 h [4, 9]: 2580 ng/g
concentration at 8 h [4, 8]: 762 ng/g
concentration at 8 h [4, 9]: 1710 ng/g
concentration at 24 h [4, 8]: 396 ng/g
concentration at 1 h [4, 10]: 5.4 ng/g
concentration at 4 h [4, 10]: 28.4 ng/g
concentration at 8 h [4, 10]: 43.6 ng/g
concentration at 24 h [4, 10]: 3.83 ng/g
concentration at 24 h ([4]; Sprague-Dawley, liver, oral 3 mg/kg Compound 10, read-out: Ct Liver): 431 ng/g
Kp at 24 h ([4]; Sprague-Dawley, liver/plasma, oral 3 mg/kg Compound 10): 121
concentration at 1 h [4, 11]: 15 ng/g
concentration at 4 h [4, 11]: 96.3 ng/g
concentration at 8 h [4, 11]: 29.9 ng/g
concentration at 24 h [4, 11]: 8.4 ng/g
Compound: Cc1cc(OCP(=O)(O)O)cc(C)c1Cc1ccc(O)c2c1CCC2(C)C [Compound 1, ((4-((7-hydroxy-1,1-dimethyl-2,3-dihydro-1H-indene-4-position)methyl)-3,5-dimethylphenoxy)methyl) phosphoric acid]
activity for THR-β compared with MB07444 ([1]; in words): much higher than that of the contrast compound MB07444
absolute concentration of active metabolite in the liver compared with control drug VK2809 ([4]; after prodrug compound 9, in words): higher than that of the control drug VK2809
liver-to-blood ratio compared with control drug ([4]; after prodrug compound 10, in words): significantly higher than that of the control drug
absolute concentration of active metabolite in the liver compared with MB07444 from VK2809 ([4]; after prodrug compound 10, same prodrug dose, in words): at least three times that of the active metabolite drug MB07444
